Data as given in PMC2990348 (Journal of medicinal chemistry, 2010).
Entries after “also recorded” stand apart in the source; their conditions may differ. Like-named read-outs stand apart in the source and are kept apart here.

Tests used:
poliovirus (PV) [1] = system: poliovirus (PV)
DENV2 replicon = assay type: cell-based, dengue virus type 2
PV RdRP [2] = biological target: T1, PV RdRP (Poliovirus type 1, UniProt P03300); conditions: cited from earlier work
PV RdRP [3] = biological target: T1, PV RdRP; assay type: biochemical
[4] = system: dengue virus type 2 (DENV2); conditions: read-out: IC50, dengue virus type 2; cited from earlier work
hepatitis C virus (HCV) = conditions: read-out: IC50, replication of hepatitis C virus; cited from earlier work
PV RdRP (3D^pol) [5] = biological target: T2, PV RdRP (3D^pol) (Poliovirus type 1, UniProt P03300); assay type: biochemical
PV RdRP (3D^pol) [6] = biological target: T2, PV RdRP (3D^pol); assay type: biochemical; remark: listed apart in the source
poliovirus (PV) [7] = test: in vitro; conditions: human
in vitro = conditions: human

T1 sequence (P03300 1749-2209 limits assumed): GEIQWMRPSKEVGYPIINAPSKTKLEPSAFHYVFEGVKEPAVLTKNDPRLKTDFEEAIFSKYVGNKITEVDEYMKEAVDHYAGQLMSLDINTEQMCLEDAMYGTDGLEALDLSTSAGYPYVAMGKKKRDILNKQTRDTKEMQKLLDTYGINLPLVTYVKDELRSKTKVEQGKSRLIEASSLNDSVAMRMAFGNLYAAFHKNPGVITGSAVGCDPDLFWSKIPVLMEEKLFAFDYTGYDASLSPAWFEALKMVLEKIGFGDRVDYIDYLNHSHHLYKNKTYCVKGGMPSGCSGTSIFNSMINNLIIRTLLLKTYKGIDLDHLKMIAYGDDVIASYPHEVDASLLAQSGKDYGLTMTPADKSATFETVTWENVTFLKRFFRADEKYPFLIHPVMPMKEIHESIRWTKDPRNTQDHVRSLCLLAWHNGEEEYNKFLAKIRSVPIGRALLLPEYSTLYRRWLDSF
T2 sequence (P03300 1749-2209 limits assumed): as above

For `Nc1ncnc2c1ccn2[C@@H]1O[C@H](CO)[C@@H](O)[C@H]1O` [Compound 3, tubercidin, reference compound], the “Cytotoxic effects to HeLa cells after 7 h” value (“Cytotoxic effects” for short) (HeLa S3 cells) was “pronounced effects”.

In the case of `COC[C@H]1O[C@@H](n2ccc3c(C)ncnc32)[C@H](O)[C@@H]1O` [Compound 7, 4-Methyl-7-(5'-O-methyl-β-D-ribofuranosyl)pyrrolo[2,3-d]pyrimidine], the “Antiviral activity in plaque assays of infectivity” value (poliovirus (PV) [1]) is reported as “eliminated the antiviral effect”, the “Reduction of biological activity on methylation of the 5'-alcohol of 6” value (poliovirus (PV) [1]) is reported as “over 1000 fold” and the “Cytotoxic effects” value (HeLa S3 cells) is reported as “little cytotoxicity”. The “Cytotoxicity” value (HeLa S3 cells) was “essentially no cytotoxicity” and the “Inhibition of DENV2 replicon activity” value (DENV2 replicon) was “essentially no inhibition”.

For `NC(=O)c1ncn([C@@H]2O[C@H](COP(=O)(O)OP(=O)(O)OP(=O)(O)O)[C@@H](O)[C@H]2O)n1` [RTP, ribavirin triphosphate], the “Efficiency kpol/Kd,app” value (PV RdRP [2]) is listed as 30 M⁻¹ s⁻¹, the kpol (PV RdRP [2]) is listed as 0.014 ± 0.001 s⁻¹ and the “Efficiency relative to 8 or 9” value (PV RdRP [3]) is listed as “approximately three orders magnitude lower”.

In the case of `Cc1ccnc2c1ncn2[C@@H]1O[C@H](CO)[C@@H](O)[C@H]1O` [Compound 4, 7-Methyl-3-β-D-ribofuranosyl-3H-imidazo[4,5-b]pyridine], the “Activity against PV” value (poliovirus (PV) [1]) is reported as “inactive”, the “Cytotoxic effects” value (HeLa S3 cells) is reported as “little cytotoxicity” and the “Cytotoxicity” value (HeLa S3 cells) is reported as “essentially no cytotoxicity”. The “Inhibition of DENV2 replicon activity” value (DENV2 replicon) was “essentially no inhibition”.

In the case of `C#C[C@@]1(O)[C@H](O)[C@@H](CO)O[C@H]1n1ccc2c(N)ncnc21` [NITD008, 7-deaza-2'-C-ethynyladenosine], the IC50 [4] is given as 640 nM.

With `Cc1ncnc2c1ncn2[C@@H]1O[C@H](CO)[C@@H](O)[C@H]1O` [Compound 2, 6-methyl-9-β-D-ribofuranosylpurine, reference compound] the “Cytotoxic effects” value (HeLa S3 cells) was “pronounced effects” and the “Toxicity relative to 3 (fold less toxic)” value (HeLa S3 cells; human) was ~ 5 fold.

For `Nc1ncnc2c1ncn2[C@@H]1O[C@H](COP(=O)(O)OP(=O)(O)OP(=O)(O)O)[C@@H](O)[C@H]1O` [ATP, adenosine triphosphate], the “Efficiency kpol/Kd,app” value (PV RdRP [2]) is listed as 650000 M⁻¹ s⁻¹ and the kpol (PV RdRP [2]) is listed as 87 ± 4 s⁻¹.

In the case of `C[C@@]1(O)[C@H](O)[C@@H](CO)O[C@H]1n1ccc2c(N)ncnc21` [7-deaza-2'-C-methyladenosine], the IC50 (hepatitis C virus (HCV)) is given as 108 nM.

With `Cc1ncnc2c1ccn2[C@@H]1O[C@H](COP(=O)(O)OP(=O)(O)OP(=O)(O)O)[C@@H](O)[C@H]1O` [Compound 9, 4-Methyl-7-β-D-ribofuranosylpyrrolo[2,3-d]pyrimidine 5'-triphosphate] the “Incorporation efficiency across from uracil” value (PV RdRP (3D^pol) [5]) was “comparable to natural ATP”, the “Incorporation opposite adenine and guanine” value (PV RdRP (3D^pol) [5]) was “almost no incorporation” and the “RNA chain termination (extension of RNA oligomers to +4)” value (PV RdRP (3D^pol) [5]) was “neither of these compounds functions as a RNA chain terminator”. For the same molecule, the “Inhibition of PV RdRP” value (PV RdRP (3D^pol) [6]) was “neither 8 nor 9 inhibit PV RdRP”, the “kcat compared with natural correct nucleotides” value (PV RdRP (3D^pol) [6]) was “increases in kcat” and the “Efficiency kpol/Kd,app” value (PV RdRP [3]) was 50000 M⁻¹ s⁻¹. The “Efficiency relative to natural ATP” value (PV RdRP [3]) was “only ten-fold lower than natural ATP”, the “Incorporation opposite C by PV RdRP, rate” value (PV RdRP [3]) was “extremely slow” and the “Substrate of PV RdRP” value (PV RdRP [3]) was “robust substrates; also recorded: efficient substrate”. For the same molecule, the kpol (PV RdRP [3]) was 6 ± 0.5 s⁻¹.

For `Cc1nccc2c1ncn2[C@@H]1O[C@H](CO)[C@@H](O)[C@H]1O` [Compound 5, 3-deaza-6-methyl-9-β-D-ribofuranosylpurine], the “Activity against PV” value (poliovirus (PV) [1]) was “inactive”, the “Antiviral activity in plaque assays of infectivity” value (poliovirus (PV) [1]) was “essentially inactive” and the “Cytotoxicity” value (HeLa S3 cells) was “essentially no cytotoxicity”. The “Inhibition of DENV2 replicon activity” value (DENV2 replicon) was “essentially no inhibition”.

For `Cc1ncnc2c1ncn2[C@@H]1O[C@H](COP(=O)(O)OP(=O)(O)OP(=O)(O)O)[C@@H](O)[C@H]1O` [Compound 8, 6-methyl-9-β-D-ribofuranosylpurine 5'-triphosphate], the “Incorporation efficiency across from uracil” value (PV RdRP (3D^pol) [5]) was “comparable to natural ATP”, the “Incorporation opposite adenine and guanine” value (PV RdRP (3D^pol) [5]) was “almost no incorporation” and the “RNA chain termination (extension of RNA oligomers to +4)” value (PV RdRP (3D^pol) [5]) was “neither of these compounds functions as a RNA chain terminator”. For the same molecule, the “Inhibition of PV RdRP” value (PV RdRP (3D^pol) [6]) was “neither 8 nor 9 inhibit PV RdRP”, the “kcat compared with natural correct nucleotides” value (PV RdRP (3D^pol) [6]) was “increases in kcat” and the “Efficiency kpol/Kd,app” value (PV RdRP [3]) was 60000 M⁻¹ s⁻¹. For the same molecule, the “Efficiency relative to natural ATP” value (PV RdRP [3]) was “only ten-fold lower than natural ATP”, the “Incorporation opposite C by PV RdRP, rate” value (PV RdRP [3]) was “extremely slow” and the “Substrate of PV RdRP” value (PV RdRP [3]) was “robust substrates”. The kpol (PV RdRP [3]) was 11 ± 0.3 s⁻¹.

Work on `Cc1ncnc2c1ccn2[C@@H]1O[C@H](CO)[C@@H](O)[C@H]1O` [Compound 6, 4-Methyl-7-β-D-ribofuranosylpyrrolo[2,3-d]pyrimidine] yielded a selectivity ratio (poliovirus (PV) [7]) greater than 100 and a viability at 100 µM (in vitro) of 33%.
